Assay results taken from ChEMBL document CHEMBL1667742, “Angiotensin II receptor type 1 (AT1) selective nonpeptidic antagonists--a perspective” (Bioorg Med Chem, 2010).
Numbering of substitutions follows the chain as printed.

Tests used:
[1] = biological target: T1, Type-2 angiotensin II receptor (Homo sapiens, UniProt P50052); assay: Binding affinity to angiotensin AT2 receptor
T1 sequence (P50052 whole entry): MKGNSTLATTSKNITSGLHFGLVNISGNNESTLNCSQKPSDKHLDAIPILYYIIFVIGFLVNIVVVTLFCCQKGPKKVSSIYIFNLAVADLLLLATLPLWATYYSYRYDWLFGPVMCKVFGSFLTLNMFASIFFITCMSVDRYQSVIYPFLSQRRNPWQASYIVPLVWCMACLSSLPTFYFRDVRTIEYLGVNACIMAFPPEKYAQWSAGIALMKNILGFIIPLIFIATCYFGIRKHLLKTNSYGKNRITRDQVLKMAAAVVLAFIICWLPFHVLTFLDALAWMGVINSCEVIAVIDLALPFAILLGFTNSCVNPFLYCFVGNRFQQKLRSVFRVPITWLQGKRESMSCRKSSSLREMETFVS

[2] = biological target: T2, Type-1 angiotensin II receptor (Oryctolagus cuniculus, UniProt P34976); assay: (§1) Antagonist activity at angiotensin AT1 receptor in rabbit aorta; format: functional, tissue-based; conditions: read-out: pA2 (converted)
T2 sequence (P34976 whole entry): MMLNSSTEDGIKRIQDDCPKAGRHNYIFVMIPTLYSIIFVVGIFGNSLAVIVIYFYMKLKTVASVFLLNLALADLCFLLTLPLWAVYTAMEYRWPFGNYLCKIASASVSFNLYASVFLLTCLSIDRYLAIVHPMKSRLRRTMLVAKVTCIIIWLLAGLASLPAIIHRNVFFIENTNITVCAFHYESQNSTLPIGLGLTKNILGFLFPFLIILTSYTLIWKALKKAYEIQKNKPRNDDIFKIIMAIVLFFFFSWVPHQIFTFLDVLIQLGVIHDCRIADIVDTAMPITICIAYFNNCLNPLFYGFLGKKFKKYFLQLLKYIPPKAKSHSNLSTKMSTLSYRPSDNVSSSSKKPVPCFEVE

[3] = biological target: T2, Type-1 angiotensin II receptor; assay: Antagonist activity at angiotensin AT1 receptor in rabbit aortic strip assessed as inhibition of angiotensin 2-induced contractile response; format: functional
[4] = tested on: Rattus norvegicus; assay: Ratio of compound ED50 to losartan ED50 for po dosed renal hypertensive rat model; format: functional
[5] = biological target: T3, Type-1 angiotensin II receptor (Homo sapiens, UniProt P30556); assay: (§2) Antagonist activity at angiotensin AT1 receptor; format: functional; conditions: for Kb: read-out: pA2 (converted)
T3 sequence (P30556 whole entry): T2 sequence (P34976 whole entry) with M2I, A49V, V254I, V270I, H272R, K311R, S349T, V353A

[6] = Displacement of radiolabeled angiotensin2 from angiotensin AT1 receptor in rat adrenal cortex membranes; format: cell membranes, Membrane
[7] = tested on: Rattus norvegicus; assay: Antihypertensive activity in po dosed renal hypertensive rat model; format: functional; conditions: read-out: ID50 (the source's name)
[8] = tested on: Rattus norvegicus; assay: Antihypertensive activity in iv dosed renal hypertensive rat model; format: functional
[9] = Antagonist activity at angiotensin AT1 receptor in rat aorta; format: functional, tissue-based
[10] = biological target: T3, Type-1 angiotensin II receptor; assay: Binding affinity to angiotensin AT1 receptor
[11] = Binding affinity to angiotensin AT1 receptor in rat adrenal cortical membranes; format: cell membranes
[12] = Selectivity ratio of IC50 for angiotensin AT1 receptor to IC50 for angiotensin AT2 receptor
[13] = biological target: T2, Type-1 angiotensin II receptor; assay: Antagonist activity at angiotensin AT1 receptor in rabbit aorta assessed as reduction of angiotensin 2-induced contractile response; format: functional, tissue-based; conditions: read-out: pA2 (converted)
[14] = Antagonist activity at angiotensin AT1 receptor in rat liver membranes; format: functional, cell membranes, Membrane
[15] = tested on: Rattus norvegicus; assay: Inhibition of angiotensin 2-induced response in iv dosed normotensive rat; format: functional
[16] = Binding affinity to angiotensin AT1 receptor in rat liver membranes; format: cell membranes, Membrane
[17] = biological target: T2, Type-1 angiotensin II receptor; assay: Binding affinity to angiotensin AT1 receptor in rabbit aortic rings
[18] = Antagonist activity at angiotensin AT1 receptor in rat adrenal cortical membranes; format: functional, cell membranes
[19] = biological target: T4, Type-1 angiotensin II receptor (Bos taurus) (UniProt P25104); assay: Binding affinity to angiotensin AT1 receptor in bovine adrenal cortex membranes; format: cell membranes; conditions: Membrane
T4 sequence (whole entry): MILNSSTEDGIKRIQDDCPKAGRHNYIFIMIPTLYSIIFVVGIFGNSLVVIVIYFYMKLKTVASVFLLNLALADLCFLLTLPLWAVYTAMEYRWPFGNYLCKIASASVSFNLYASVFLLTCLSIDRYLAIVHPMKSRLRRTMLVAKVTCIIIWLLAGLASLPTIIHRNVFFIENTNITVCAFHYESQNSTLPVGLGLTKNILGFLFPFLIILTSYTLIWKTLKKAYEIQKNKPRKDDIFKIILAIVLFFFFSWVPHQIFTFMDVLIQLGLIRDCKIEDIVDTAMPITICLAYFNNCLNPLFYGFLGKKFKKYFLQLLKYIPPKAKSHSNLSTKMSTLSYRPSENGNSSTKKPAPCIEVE

[20] = biological target: T5, Type-1 angiotensin II receptor (Oryctolagus cuniculus) (UniProt P34976); assay: as §1; format: functional, tissue-based
T5 sequence (whole entry): T2 sequence (P34976 whole entry)

[21] = tested on: Rattus norvegicus; assay: Antihypertensive activity in po dosed conscious rat; format: functional; conditions: read-out: ID50 (the source's name)
[22] = Oral bioavailability in rat; format: ADME, organism-based; conditions: in vivo
[23] = biological target: T6, Type-1 angiotensin II receptor (Homo sapiens) (UniProt P30556); assay: as §2; format: functional
T6 sequence (whole entry): T2 sequence (P34976 whole entry) with M2I, A49V, V254I, V270I, H272R, K311R, S349T, V353A

[24] = biological target: T6, Type-1 angiotensin II receptor (Homo sapiens); assay: Ratio of compound Ki to losartan Ki for angiotensin AT1 receptor

CCCCc1nc(Cl)c2n1C(c1ccc(-c3ccccc3-c3nnn[nH]3)cc1)CC=C2C(=O)O (centres undefined)
IC50 [1]: 50 nM

CCc1nc2c(CC)cn(Cc3ccc(-c4ccccc4-c4nn[nH]n4)cc3)n2n1
Kb [2]: 1.51 nM

CCCCc1nc2cccc(C(=O)O)c2n1Cc1ccc(-c2ccccc2-c2nnn[nH]2)cc1
IC50 [3]: 0.055 nM

CCc1nn(Cc2ccc(-c3ccccc3-c3nn[nH]n3)cc2)/c(=N/C(=O)C2=C(C(=O)[O-])CCC2)s1.[K+]
Ratio ED50 [4]: 10
IC50 [5]: 0.4 nM

CCCCc1nc(SC)c(C(=O)O)n1Cc1ccc(-c2ccccc2-c2nnn[nH]2)cc1
IC50 [6]: 0.2 nM
ED50 [7]: 0.4 mg/kg
ED50 ([8]; read-out: ID50 (the source's name)): 0.05 mg/kg

CCCCC(=O)N(Cc1ccc(-c2ccccc2-c2nnn[nH]2)cc1)[C@H](C(=O)O)C(C)C
IC50 [9]: 2.7 nM

CCCCc1cn([C@H]2[C@H](C)CCC[C@@H]2C)c(=O)n1Cc1ccc(-c2ccccc2-c2nnn[nH]2)nc1 [SC-55634]
IC50 [10]: 4.9 nM
Kb [5]: 0.501 nM

CCCCc1nc(C)n(Cc2sccc2C(=O)OC)c(=O)c1Cc1ccc(-c2ccccc2-c2nnn[nH]2)cc1
Ki [11]: 0.9 nM

CCc1nc2ccc(N(Cc3ccccc3)C(=O)c3cccs3)cc2c(=O)n1Cc1ccc(-c2ccccc2-c2nn[nH]n2)cc1
Ratio IC50 [12]: 3000

CCCCCc1nc(SCc2ccc(-c3ccccc3C(=O)O)cc2)nn1Cc1ccc(-c2ccccc2C(=O)O)cc1
Kb [13]: 3.98 nM

Cc1ccnc2c1nc(C1CC1)n2Cc1ccc(-c2ccccc2C(=O)O)cc1
IC50 [11]: 52 nM
Kb [2]: 2 nM

Cc1nc(Sc2ccc(-c3ccccc3-c3nn[nH]n3)cc2)c2ccccc2n1
IC50 [14]: 350 nM

CCCCc1nc(Cl)c2n1C(c1ccc(-c3ccccc3-c3nnn[nH]3)cc1)CC(C(=O)O)=C2 (centres undefined)
IC50 [1]: 10 nM

CCCCc1c(Cc2ccc(-c3ccccc3-c3nn[nH]n3)cc2)[n+]([O-])c2ccccc2[n+]1[O-]
Ki [11]: 2.6 nM
Kb [9]: 2.1 nM

CCCCc1ncc(/C=C(\Cc2cccs2)C(=O)O)n1Cc1ccc(C(=O)O)cc1 [EPROSARTAN]
ID60 [15]: 0.08 mg/kg

CCCCc1nc2cccnc2n1Cc1ccc(-n2cccc2-c2nnn[nH]2)cc1
IC50 [9]: 0.6 nM
Kb [2]: 3.55 nM

CCc1nc2c(C)cc(C)nc2n1Cc1ccc(-c2ccccc2S(=O)(=O)NC(=O)c2ccccc2)cc1
Kb [2]: 0.0501 nM

CCc1nc2ccc(NC(=O)N(C)C(C)C)cc2c(=O)n1Cc1ccc(-c2ccccc2S(=O)(=O)NC(=O)OCCC2CC2)cc1F
Ratio IC50 [12]: 2

CCCCc1nc2ccc(C(C)(C)OC)cc2c(=O)n1Cc1ccc(-c2ccccc2-c2nn[nH]n2)cc1 [CL-329167]
IC50 [10]: 6 nM
Kb [2]: 9.77 nM
Kb [5]: 0.0126 nM

CCc1cc(OCc2ccc(-c3ccccc3-c3nnn[nH]3)cc2)c2c(n1)CCCC2
Kb [2]: 0.0501 nM

C[C@@H]1CN(Cc2ccc(-c3ccccc3-c3nn[nH]n3)cc2)C[C@H](C)O1
Kb [5]: 126 nM

CCCc1nc2c(n1Cc1ccc(-c3ccccc3-c3nnn[nH]3)cc1)C(=O)CCCC2 [PRATOSARTAN]
Kb [2]: 0.0912 nM

CCCc1cc(O)c(C)c(=O)n1Cc1ccc(-c2ccccc2-c2nn[nH]n2)cc1
ED50 ([15]; Rattus norvegicus, iv, read-out: ID50 (the source's name)): 0.02 mg/kg

CCCCc1nc2ccccc2[n+]([O-])c1Oc1ccc(-c2ccccc2-c2nn[nH]n2)cc1
Ki [1]: 4.5 nM

CCCCc1cn(CCCC)c(=O)n1Cc1ccc(-c2ccccc2-c2nnn[nH]2)cc1 [SC-51895]
IC50 [10]: 12 nM
Kb [5]: 2.24 nM

CCCCc1nc(Cc2ccc(-c3ccccc3-c3nnn[nH]3)cc2)n(CCCC)n1
IC50 [10]: 16 nM
Kb [5]: 3.16 nM

CCc1nc2c(C)cc(C)nc2n1Cc1ccc(-c2c(-c3nn[nH]n3)cnc3ccccc23)cc1
IC50 [16]: 0.4 nM

CCc1nc2c(C)cc(C)nc2n1Cc1ccc2c(c1)CCN2C(c1ccccc1)c1nnn[nH]1 (centres undefined)
IC50 [17]: 1 nM

CCCCc1nc2cccnc2n1-c1ccc(CCO/C(O)=C2\C(C(C)C)=NC(C)=C(C(=O)Nc3cccnc3)C2c2ccccc2Cl)cc1 (centres undefined)
IC50 [18]: 0.6 nM

CCc1cc(OCc2ccc(-c3ccccc3-c3nnn[nH]3)cc2)c2ccccc2n1
Kb [2]: 5.01 nM

CCc1cc(Sc2ccc(-c3ccccc3-c3nn[nH]n3)cc2)c2ncccc2n1
IC50 [14]: 20 nM

CCCc1nc(CC)c(C=O)n1Cc1ccc(-c2ccccc2-c2nn[nH]n2)cc1
IC50 [6]: 2.1 nM

CCCc1nc(C(F)(F)C(F)(F)F)c(C(=O)O)n1Cc1ccc(-c2ccccc2-c2nn[nH]n2)cc1
IC50 [6]: 3.1 nM

CCOc1nc2cccc(C(=O)O)c2n1Cc1ccc(-c2ccccc2-c2nsc(O)n2)cc1
Activity [19]: 2.5 nM

CCCCc1cn(CCCC)c(=O)n1Cc1ccc(-c2ccccc2-c2nnn[nH]2)nc1 [SC-52892]
IC50 [10]: 6.5 nM
Kb [5]: 2.09 nM

CCc1nc2c(n1Cc1ccc(-c3ccccc3-c3nn[nH]n3)cc1)/C(=C/C(=O)O)CCCC2
pD2 [20]: 9.91
IC50 [16]: 5.5 nM

CCCCc1nc2ccc([C@]3(C)C[C@H]4CCCN4O3)cc2c(=O)n1Cc1ccc(-c2ccccc2-c2nn[nH]n2)cc1
Kb [5]: 0.0126 nM

CCOc1nc2cccc(C(=O)O)c2n1Cc1ccc(-c2ccccc2-c2noc(=O)[nH]2)cc1 [AZILSARTAN]
Activity [19]: 4.2 nM
ED50 [21]: 0.04 mg/kg

CCCc1nc2ccccc2n1C(F)(F)C(O)c1ccc(-c2ccccc2-c2nnn[nH]2)cc1 (centres undefined)
Ki [10]: 29 nM
ED30 [8]: 2 mg/kg
Ki [1]: 480 nM

COc1c(OCc2ccc(-c3ccccc3-c3nn[nH]n3)cc2)cc(C)nc1C
Kb [13]: 1.51 nM
pKi [16]: 8.7

CCCCc1nnc(SCc2ccccc2C(=O)O)n1Cc1ccc(-c2ccccc2-c2nn[nH]n2)cc1
IC50 [10]: 1.4 nM

CCCc1nc(C)n2[nH]c(=O)nc2c1Cc1ccc(-c2ccccc2-c2nnn[nH]2)cc1
Ki [10]: 24 nM

CCCCC1=NC(Cl)=C(C(=O)O)C(C)N1Cc1ccc(-c2ccccc2-c2nnn[nH]2)cc1 (centres undefined)
Ki [10]: 1 nM

CCCCCCC(C(=O)O)n1cnc(NC(=O)c2cccc(O)c2C(=O)O)c1 (centres undefined)
Kb [2]: 100 nM

CCOc1nc2cccc(C(=O)OC(C)OC(=O)OC3CCCCC3)c2n1Cc1ccc(-c2ccccc2-c2nnn[nH]2)cc1 (centres undefined) [CANDESARTAN CILEXETIL]
ED50 [21]: 0.06 mg/kg
bioavailability [22]: 28%
IC50 [3]: 200 nM

CCCc1nc(CC)c(C(=O)O)n1Cc1ccc(-c2ccccc2-c2nn[nH]n2)cc1
IC50 [6]: 6 nM
Ratio ED50 [4]: 20

CCCCc1nc(CCCC)n(Cc2ccc(-c3ccccc3-c3nnn[nH]3)cc2)n1
IC50 [10]: 5.6 nM
Kb [5]: 2 nM

CCOc1nc2cccc(C(=O)O)c2n1Cc1ccc(-c2ccccc2-c2nnn[nH]2)cc1
IC50 [10]: 110 nM
pD2 [23]: 9.97
Ratio Ki [24]: 10

CCCc1cc(=O)n(CC(=O)N(C)C)c(=O)n1Cc1ccc(-c2ccccc2-c2nn[nH]n2)cc1
IC50 [18]: 0.65 nM
Activity [19]: 9.3 nM

CCCCC1=N[C@](C)(C2CCCCC2)C(=O)N1Cc1ccc(-c2ccccc2-c2nnn[nH]2)cc1
IC50 [17]: 0.77 nM

CCCSC1=NS(=O)(=O)c2ccc(C(=O)O)cc2N1Cc1ccc(-c2ccccc2-c2nn[nH]n2)cc1
Ki [11]: 8.5 nM
Kb [20]: 0.08 nM

CCCCc1nc2ccn(CC(=O)N3CCCCC3)c(=O)c2n1Cc1ccc(-c2ccccc2S(=O)(=O)NC(=O)OCc2ccccc2)cc1F
IC50 [10]: 4.7 nM
Ratio IC50 [12]: 0.74
IC50 [1]: 3.5 nM
